17 compounds from patent US7511133B2, “Adenosine A3 receptor agonists” (King Pharmaceuticals Research and Development, Inc., priority 2003, dated 2009) can be followed below.

The target of data set [1] is T1, human A2A adenosine receptors (Homo sapiens, UniProt P29274).
T1 construct: expressed in transfected cells; host or cells: CHO cells
The data set is described as follows: Displacement of [^3H]CGS21680 binding, human A2A adenosine receptors in CHO cells (agonist radioligand). The following applies: read-out: Ki(A2A). Displacement of [^3H]CGS21680 binding to human A2A adenosine receptors exp. in CHO cells.

Data set [2] has as its target T2, human A1 adenosine receptors (Homo sapiens, UniProt P30542).
T2 sequence (P30542 1-326): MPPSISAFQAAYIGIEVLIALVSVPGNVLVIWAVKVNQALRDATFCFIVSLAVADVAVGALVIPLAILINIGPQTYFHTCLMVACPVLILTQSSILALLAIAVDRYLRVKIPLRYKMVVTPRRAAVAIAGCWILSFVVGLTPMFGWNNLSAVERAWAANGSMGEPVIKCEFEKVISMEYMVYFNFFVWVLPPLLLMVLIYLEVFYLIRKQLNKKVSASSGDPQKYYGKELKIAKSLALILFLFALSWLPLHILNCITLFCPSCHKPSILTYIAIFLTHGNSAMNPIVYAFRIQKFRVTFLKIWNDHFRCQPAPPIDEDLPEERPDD
Description: Displacement of [^3H]CHA binding, human A1 adenosine receptors in CHO cells (agonist radioligand).

Data set [3] deals with T3, human A3 adenosine receptors (Homo sapiens, UniProt P0DMS8).
T3 sequence (P0DMS8 1-318): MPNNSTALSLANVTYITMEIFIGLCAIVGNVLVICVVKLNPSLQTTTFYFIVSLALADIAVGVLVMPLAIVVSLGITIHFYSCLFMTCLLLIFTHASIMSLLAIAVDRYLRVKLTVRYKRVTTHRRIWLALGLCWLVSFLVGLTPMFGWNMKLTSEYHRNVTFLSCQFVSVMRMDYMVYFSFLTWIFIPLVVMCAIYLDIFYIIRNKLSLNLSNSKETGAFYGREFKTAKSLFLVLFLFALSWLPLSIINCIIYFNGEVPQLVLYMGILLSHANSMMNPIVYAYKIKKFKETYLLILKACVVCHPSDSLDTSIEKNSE
The following applies: for A1/A3: ratio Ki(A1)/Ki(A3), agonist radioligands.

Setting [4] is: human A2A, CHO cells, [^3H]CGS21680.

In general, melting point refers to the temperature, or range, at which the solid turns liquid. In general, pKi refers to the negative decadic logarithm of the Ki, by convention in mol/L.

pKi: −log10 of the molar value. Like-named read-outs stand apart in the source and are kept apart here.

T1 sequence (P29274 whole entry): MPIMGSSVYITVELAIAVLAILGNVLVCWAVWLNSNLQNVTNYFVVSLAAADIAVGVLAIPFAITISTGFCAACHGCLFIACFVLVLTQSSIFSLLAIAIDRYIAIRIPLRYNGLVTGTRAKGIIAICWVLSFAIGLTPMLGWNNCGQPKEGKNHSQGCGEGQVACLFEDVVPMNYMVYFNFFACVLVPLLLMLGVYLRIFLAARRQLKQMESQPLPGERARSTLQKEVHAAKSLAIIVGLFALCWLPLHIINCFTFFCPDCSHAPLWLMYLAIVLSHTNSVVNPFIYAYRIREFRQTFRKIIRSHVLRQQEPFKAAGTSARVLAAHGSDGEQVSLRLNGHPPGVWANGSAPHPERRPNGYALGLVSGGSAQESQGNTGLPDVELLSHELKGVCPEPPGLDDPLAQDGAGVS

In turn, `CCNC(=O)[C@H]1O[C@@H](n2cnc3c(NC(=O)Nc4ccc(S(=O)(=O)N(C)C(C)C)cc4)ncnc32)C(O)C1O` (stereo partly drawn) [Compound 97, 1-Deoxy-1-[6-[[[[4-[N-(1-methylethyl)-N-(methyl)-aminosulfonyl]phenyl]amino]carbo-nyl]amino]-9H-purin-9-yl]-N-ethyl-β-D-ribofuranuronamide] had a melting point of 140 °C.
The compound `CCNC(=O)[C@H]1O[C@@H](n2cnc3c(NC(=O)Nc4ccc(S(=O)(=O)N(C)C)cc4)ncnc32)C(O)C1O` (stereo partly drawn) [Compound 98, 1-Deoxy-1-[6-[[[[4-[N,N-(dimethyl)amino-sulfonyl]phenyl]amino]carbonyl]amino]-9H-purin-9-yl]-N-ethyl-β-D-ribofuranuronamide] had a melting point of 176 °C. Further, the pKi in data set [1] (setting [4]) is under 6.00. Further, the pKi in data set [2] is 6.55.
For the compound `C=CCN(CC=C)S(=O)(=O)c1ccc(NC(=O)Nc2ncnc3c2ncn3[C@@H]2O[C@H](C(=O)NCC)[C@@H](O)[C@H]2O)cc1` [Compound 99, 1-Deoxy-1-[6-[[[[4-[N,N-bis(allyl)amino-sulfonyl]phenyl]amino]carbonyl]amino]-9H-purin-9-yl]-N-ethyl-β-D-ribofuranuronamide], the melting point is 126 °C. Besides, the pKi in data set [1] (setting [4]) is under 6.00. Further, the pKi in data set [2] is 6.42. In data set [3], the negative logarithm of the Ki (pKi) was 8.00 and the A1/A3 turned out to be 38.
In turn, `CCNC(=O)[C@H]1O[C@@H](n2cnc3c(NC(=O)Nc4ccc(S(=O)(=O)N(CC)CC)cc4)ncnc32)[C@H](O)[C@@H]1O` [Compound 100, 1-Deoxy-1-[6-[[[[4-[N,N-bis(ethyl)amino-sulfonyl]phenyl]amino]carbonyl]amino]-9H-purin-9-yl]-N-ethyl-β-D-ribofuranuronamide] registered a melting point of 168 °C. Further, the pKi in data set [1] (setting [4]) is under 6.00.
Take `CCNC(=O)[C@H]1O[C@@H](n2cnc3c(NC(=O)Nc4ccc(S(=O)(=O)NC5C=CCC5)cc4)ncnc32)[C@H](O)[C@@H]1O` (stereo partly shown) [Compound 101]: the pKi in data set [1] was under 6.00; in data set [2] (read-out: Ki(A1). Displacement of [^3H]CHA binding to human A1 adenosine receptors exp. in CHO cells., human A1, CHO cells, [^3H]CHA, confidence limits in parentheses), 6.60. Also, the A1/A3 in data set [3] is on record as 13.16.
For the compound `CCCN(CCC)S(=O)(=O)c1ccc(NC(=O)Nc2ncnc3c2ncn3[C@@H]2O[C@H](C(=O)NCC)[C@@H](O)[C@H]2O)cc1` [Compound 102, 1-Deoxy-1-[6-[[[[4-[N,N-bis(propyl)aminosulfonyl]phenyl]amino]-carbo-nyl]amino]-9H-purin-9-yl]-N-ethyl-β-D-ribofuranuronamide], the pKi in data set [1] (setting [4]) is under 6.00; in data set [2] it was 6.46; in data set [3], 7.85.
The compound `CCNC(=O)[C@H]1O[C@@H](n2cnc3c(NC(=O)Nc4ccccc4S(=O)(=O)Nc4ccc(OC)cc4)ncnc32)C(O)C1O` (stereo partly drawn) [Compound 103, 1-Deoxy-N-ethyl-1-[[6-[[[2-N-(4-methoxyphenyl)-sulfonamidophenyl]amino]carbonyl]amino]-9H-purin-9-yl]-b-D-ribofuran-uronamide] gave a melting point of 168 to 170 °C.
For `CCCCCNS(=O)(=O)c1cccc(NC(=O)Nc2ncnc3c2ncn3[C@@H]2O[C@H](C(=O)NCC)C(O)C2O)c1` (stereo partly drawn) [Compound 104, 1-Deoxy-N-ethyl-1-[[6-[[[3-N-(pentyl)-sulfonamido-phenyl]amino]carbonyl]amino]-9H-purin-9-yl]-b-D-ribofuranuronamide], the melting point is 158 to 159 °C.
Consider `CCNC(=O)[C@H]1O[C@@H](n2cnc3c(NC(=O)Nc4cccc(S(=O)(=O)Nc5ccc(OC)cc5)c4)ncnc32)C(O)C1O` (stereo partly drawn) [Compound 105, 1-Deoxy-N-ethyl-1-[[6-[[[3-N-(4-methoxyphenyl)-sulfonamidophenyl]amino]carbonyl]amino]-9H-purin-9-yl]-b-D-ribofuran-uronamide], for which the melting point was 206 to 208 °C (dec.).
Compound `CCNC(=O)[C@H]1O[C@@H](n2cnc3c(NC(=O)Nc4ccccc4S(N)(=O)=O)ncnc32)C(O)C1O` (stereo partly drawn) [Compound 106, 1-Deoxy-N-ethyl-1-[[6-[[(2-sulfonamidophenyl)amino]-carbonyl]amino]-9H-purin-9-yl]-b-D-ribofuranuronamide] gave a melting point of 188 to 189 °C.
The compound `CCNC(=O)[C@H]1O[C@@H](n2cnc3c(NC(=O)Nc4ccccc4S(=O)(=O)N(C)C(C)C)ncnc32)C(O)C1O` (stereo partly drawn) [Compound 107, 1-Deoxy-N-ethyl-1-[[6-[[[2-N-(isopropyl)-N-(methyl)-sulfonamidophenyl]amino]carbonyl]amino]-9H-purin-9-yl]-b-D-ribofuranuron-amide] showed a melting point of 142 to 144 °C.
The compound `CCCCCNS(=O)(=O)c1ccccc1NC(=O)Nc1ncnc2c1ncn2[C@@H]1O[C@H](C(=O)NCC)C(O)C1O` (stereo partly drawn) [Compound 108, 1-Deoxy-N-ethyl-1-[[6-[[[2-N-(pentyl)-sulfonamido-phenyl]amino]carbonyl]amino]-9H-purin-9-yl]-b-D-ribofuranuronamide] returned a melting point of 155 to 157 °C.
The compound `CCNC(=O)[C@H]1O[C@@H](n2cnc3c(NC(=O)Nc4ccccc4S(=O)(=O)NC45C[C@H]6C[C@@H](C4)C[C@@H](C5)C6)ncnc32)C(O)C1O` (stereo partly drawn) [Compound 109, 1-Deoxy-N-ethyl-1-[[6-[[[2-N-(adamantan-1-yl)-sulfonamidophenyl]amino]carbonyl]amino]-9H-purin-9-yl]-b-D-ribofuran-uronamide] gave a melting point of 159 to 161 °C.
Compound `CCNC(=O)[C@H]1O[C@@H](n2cnc3c(NC(=O)Nc4ccccc4S(=O)(=O)N4CC=CC4)ncnc32)C(O)C1O` (stereo partly drawn) [Compound 110, 1-Deoxy-N-ethyl-1-[[6-[[[2-(2,5-dihydropyrrol-1-yl)sulfonylphenyl]amino]carbonyl]amino]-9H-purin-9-yl]-b-D-ribofuranuronamide] yielded a melting point of 149 to 151 °C.
The same measure, in the same setting: as for `CCNC(=O)[C@H]1O[C@@H](n2cnc3c(NC(=O)Nc4cccc(S(=O)(=O)N(C)C(C)C)c4)ncnc32)C(O)C1O` (stereo partly drawn) [Compound 112, 1-Deoxy-N-ethyl-1-[[6-[[[3-N-(isopropyl)-N-(methyl)-sulfonamidophenyl]amino]carbonyl]amino]-9H-purin-9-yl]-b-D-ribofuranuron-amide], the figure is 147 to 148 °C.
Turning to `CCNC(=O)[C@H]1O[C@@H](n2cnc3c(NC(=O)Nc4cccc(S(=O)(=O)NC56C[C@H]7C[C@@H](C5)C[C@@H](C6)C7)c4)ncnc32)C(O)C1O` (stereo partly drawn) [Compound 113, 1-Deoxy-N-ethyl-1-[[6-[[[3-N-(adamantan-1-yl)-sulfonamidophenyl]amino]carbonyl]amino]-9H-purin-9-yl]-b-D-ribofuran-uronamide], the melting point was 188 to 189 °C.
In turn, `CCNC(=O)[C@H]1O[C@@H](n2cnc3c(NC(=O)Nc4cccc(S(=O)(=O)N5CC=CC5)c4)ncnc32)C(O)C1O` (stereo partly drawn) [Compound 114, 1-Deoxy-N-ethyl-1-[[6-[[[3-(2,5-dihydropyrrol-1-yl)sulfonylphenyl]amino]carbonyl]amino]-9H-purin-9-yl]-b-D-ribofuranuronamide] had a melting point of 145 to 146 °C.
